Consider 5 molecules from patent US20220119856A1, “STALL SIDE METHOD FOR THE DETECTION OF BACTERIA IN DAIRY CATTLE” (TRANSFORMATIVE TECHNOLOGIES, priority 2019, published 2022).

Data set [1] has as its target T1, Apyrase (Solanum tuberosum, UniProt P80595).
T1 construct: purchased Sigma Chemical A6535
T1 sequence (P80595 1-454): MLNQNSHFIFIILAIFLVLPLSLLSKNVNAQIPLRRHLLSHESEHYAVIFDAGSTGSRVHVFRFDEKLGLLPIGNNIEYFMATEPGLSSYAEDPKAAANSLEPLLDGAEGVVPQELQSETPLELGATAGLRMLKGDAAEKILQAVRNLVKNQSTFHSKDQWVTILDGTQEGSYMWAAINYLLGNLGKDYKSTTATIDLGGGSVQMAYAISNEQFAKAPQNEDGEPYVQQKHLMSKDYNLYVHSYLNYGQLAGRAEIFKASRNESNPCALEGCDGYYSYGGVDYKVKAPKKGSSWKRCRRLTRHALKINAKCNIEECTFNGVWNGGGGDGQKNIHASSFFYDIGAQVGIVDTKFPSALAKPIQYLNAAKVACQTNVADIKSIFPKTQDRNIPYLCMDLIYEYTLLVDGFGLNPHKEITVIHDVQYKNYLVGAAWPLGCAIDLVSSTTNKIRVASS
Description: Inactivation of excess Apyrase in raw Bovine milk by surfactants, signal after ATP standard added. To be noted: 50 ul raw Bovine milk pretreated with 284 mU Apyrase. It is filed as biochemical. As to the method:
It is important to eliminate any excess Apyrase that may remain in the raw Bovine milk sample after treatment with the Apyrase enzyme that was used to eliminate endogenous ATP in Example #4. […] Among the reagents evaluated were: dimethyldioctadecylammonium chloride, laureltrimethylammonium bromide (DTAB), benzyldimethyldodecylammonium bromide (BDDABr), and cetyl trimethylammonium bromide (CTAB). The experiment was performed by adding between 0.02% and 1% of the selected surfactant to 50 ul of raw Bovine milk that had treated previously been treated with 284 mU of Apyrase as detailed in example #4. The levels of ATP were confirmed by adding 50 uL of Promega luciferin-luciferase reagent (containing 25 mM HEPES buffer (pH 7.5), 40 pg luciferase, 100 pM luciferin, and 10 mM MgSO4). As expected the readings determined on the Hygiena Ensure Luminometer were too low to measure, since all of the ATP had already been eliminated by Apyrase treatment in Example #4. After the initially readings were determined as described above, 10 uL of a 10^−8M solution of ATP standard (Sigma Chemical) was added to the samples above and the bioluminescent signal was determined on a Hygiena Ensure Luminometer. As expected a signal was now detected, since all of the excess Apyrase added earlier had been eliminated by the surfactants being evaluated. The best results were seen when the detergents benzyldimethyldodecylammonium bromide (BDDABr) at 0.05% concentration and, laureltrimethylammonium bromide (DTAB) at 0.5% and 1.0% concentrations were added to the samples.

The conditions of data set [2]: Sigma Chemical A6535, vendor specification; cited from earlier work.
Data set [3] in a line: Elimination of endogenous ATP in raw Bovine milk, luciferin-luciferase readout. It counts as biochemical. How it is done:
All assays were performed using 50 uL of raw Bovine milk and 50 uL of Promega luciferin-luciferase reagent (containing 25 mM HEPES buffer (pH 7.5), 40 pg luciferase, 100 pM luciferin, and 10mM MgSO4). Bioluminescent measurements were determined using the Hygiena Ensure System. The test was performed in both 100% and 50% raw Bovine milk. […] At a concentration of 284 mUnits the apyrase is able to deplete the endogenous ATP in 50 μL of raw milk in less than 30 seconds. The diminution of ATP was so fast with higher concentrations of Apyrase (diluting the enzyme) resulting in the inability to take meaningful reading, since all of the ATP was gone within 10 seconds. There are numerous commercially available ATP-degrading enzymes that can be tested for this purpose, but in our system, the Apyrase enzyme appears more than sufficient.

In data set [4] the test system is S. aureus. Description: Rupture of gram-positive bacteria by lytic enzyme, read by bioluminescence of released ATP. It is filed as cell-based. The following applies: 0.05% enzyme, PBS buffer, mastitic milk or healthy milk. The text has this: As the goal of this invention is to target and detect only gram positive organisms active in mastitis such as: S. aureus, Coagulase negative staphylococci (CoNS) and S. uberi, it is important to identify lytic enzymes that can effectively rupture the cell walls of these pathogens in the presence of raw Bovine milk. […] The action against specific gram-positive organisms of these enzymes has been verified in PBS buffered solutions, but their ability to rupture bacteria had to be verified to in raw milk. The first candidates tested in for their activity in Bovine milk were Lysostaphin (Lyso) which attacks S. aureus, and Streptococcal phage lytic enzyme (PlyC) which attacks Streptococcus uberis. In all reactions, a concentration a of 0.05% of the phage lytic enzyme was used to evaluate the time required to rupture the cell wall of gram-positive bacteria in raw Bovine milk, as well as in a Phosphate-buffered saline (PBS) solution. It was determined that that in one hour, PlyC can eradicate up to 6 logs of S. uberis in PBS buffer, and either mastitic milk or healthy milk. The degree of lysing was determined by bioluminescence produced by the ATP released from the ruptured cells as described earlier. We then lowered the bacterial load to 2 logs of S. uberis in PBS buffer, and either mastitic milk or healthy milk, and it was determined that the PlyC can eradicate this bacterial load in 3 minutes or less. Similar experiments were performed with Lysostaphin (Lyso), which attacks S. aureus, and we determined we that can eradicate up to 6 logs of S. aureus in PBS buffer, and either mastitic milk or healthy milk in under 25 minutes. We then lowered the bacterial load to 2 logs of S. aureus in PBS buffer and either mastitic milk or healthy milk, and it was determined that the Lyso can eradicate this bacterial load in 2 minutes or less.

The subject of data set [5] is somatic cells present in raw Bovine milk. Description: Rupture of somatic cells in raw Bovine milk, ATP released. It is filed as cell-based. The following applies: in under 90 seconds; raw Bovine milk with predetermined somatic cell counts. As to the method:
A number of surfactants (detergents) were evaluated for their ability to rupture the somatic cells present in raw Bovine milk samples. Among the reagents tested were Triton X100 (Sigma Chemical) and Neonol AF9-10 (Nonoxynol-9) (Elarum Petrochemicals). Determinations using both surfactants were performed on raw Bovine milk samples in which somatic cell counts were predetermined. […] The number of somatic cell ruptured was determined by quantifying the ATP released in 50 uL samples of treated raw Bovine milk (as a function of time) using 50 uL of Promega luciferin-luciferase reagent (containing 25 mM HEPES buffer (pH 7.5), 40 pg luciferase, 100 pM luciferin, and 10 mM MgSO4). Bioluminescent measurements were performed using a Hygiena Ensure luminometer and all readings were blank corrected.

Regarding `CCCCCCCCCCCC[N+](C)(C)Cc1ccccc1.[Br-]` [BDDABr, benzyldimethyldodecylammonium bromide], the “inactivation of Apyrase (in words)” value in data set [1] (0.05% surfactant) is recorded as “best results”.

`CCCCCCCCCCCC[N+](C)(C)C.[Br-]` [DTAB, laureltrimethylammonium bromide]: the “inactivation of Apyrase (in words)” value in data set [1] (0.5% surfactant) and in data set [1] (1.0% surfactant) was “best results” throughout.

Consider Apyrase, for which the “ATPase activity of the enzyme preparation” value in data set [2] was no less than 200 units/mg protein. Moreover, in data set [3] (100% and 50% raw Bovine milk), the “elimination of endogenous ATP (in words)” value was “works well”. In addition, the “time to deplete the endogenous ATP” value in data set [3] (284 mUnits apyrase, 50 μL of raw milk) is listed as “less than 30 seconds”. Also, the “time until all of the ATP was gone” value in data set [3] (higher concentrations of Apyrase) is no more than 10 s.

“Lysostaphin: Lysostaphin (Lyso) which attacks S. aureus”: in data set [4], the “time to eradicate bacterial load of 2 logs of S. aureus” value is on record as no more than 2 minutes and the “time to eradicate up to 6 logs of S. aureus” value was “under 25 minutes”. The “bacterial load of S. aureus eradicated” value in data set [4] (in under 25 minutes) is given as “up to 6 logs”.

As for Nonoxynol-9 [Neonol-9-10], the “ability to rupture somatic cells (in words)” value in data set [5] is given as “superior to the Triton X100”.
